Measurements published in patent US5336757A, “Antibacterial peptide and methods of use” (Harbor Branch Oceanographic Institution, Inc., priority 1992, dated 1994).
≈ marks a conversion by molar mass, not a printed value. Bridge positions count the residues as written; N and C are the ends. Square brackets hold non-standard residues; d marks the D form. Peptide text beside a SMILES is read from it. * marks the point of attachment. Phe(4-Br) = N[C@@H](Cc1ccc(Br)cc1)C(=O)O; Ile(3-Me) = CCC(C)(C)[C@H](N)C(=O)O; Cya = N[C@@H](CS(=O)(=O)O)C(=O)O; NMeQ = CN[C@@H](CCC(N)=O)C(=O)O; Tle = CC(C)(C)[C@H](N)C(=O)O; For = O=C*

Tests used:
Bacillus subtilis = assay type: cell-based
Experimental: Bacillus subtilis: Standard spore stocks (ATCC strain 6633) were purchased from Difco (#0453-36-0). Two-fold dilutions of polydiscamide A were prepared in 50 μL volumes of a suitable solvent using 96-well microtiter plates. In a separate 96-well plate, 35 μL volumes of Mueller-Hinton broth were placed in each well. The compound (5 μL) was then transferred to the broth. An inoculum of B. subtilis in the appropriate medium was added to give a cell density of 1000 cells/mL and a total volume of 50 μL. Plates were incubated at 37° C. overnight.

[1] = system: P388 murine leukemia cells; conditions: 48 h
Experimental: Polydiscamide A was tested for toxicity against P388 murine leukemia cells and A549 human lung carcinoma cells.
The P388 cells were maintained in Roswell Park Memorial Institute medium 1640 (RPMI-1640) supplemented with 10% horse serum and cultured in plastic tissue culture flasks and kept in an incubator at 37° C. in humidified air containing 5% CO2. The A549 cells were similarly maintained in RPMI-1640 but supplemented with 10% fetal bovine serum. Antibiotic-free stock cultures of P388 and A549 cells were subcultured to 10^5 cells/ml by dilutions in fresh growth medium at 2 to 5 day intervals. […]
To quantitate the effects of polydiscamide A or its analogs on cell proliferation, 75 μl warm growth medium containing 5 mg/ml MTT was added to each well. […] To spectrophotometrically quantitate formation of reduced formazan, plates were centrifuged (900 g, 5 minutes), culture fluids were removed by aspiration, and 200 μl of acidified isopropanol (2 ml concentrated HCl/L isopropanol) added per well. The absorbance of the resulting solutions was measured at 570 nm with a plate reader (MR700 Microplate Reader, Dynatech Laboratories, Chantilly, Va.). […]

[2] = system: A549 human lung carcinoma cells; conditions: 72 h
Experimental: P388 murine leukemia cells obtained from Dr. J. Mayo, National Cancer Institute, Bethesda, Md., and A549 cells were obtained from the American Type Culture Collection, Rockville, Md. The P388 cells were maintained in Roswell Park Memorial Institute medium 1640 (RPMI-1640) supplemented with 10% horse serum and cultured in plastic tissue culture flasks and kept in an incubator at 37° C. in humidified air containing 5% CO2. The A549 cells were similarly maintained in RPMI-1640 but supplemented with 10% fetal bovine serum. Antibiotic-free stock cultures of P388 and A549 cells were subcultured to 10^5 cells/ml by dilutions in fresh growth medium at 2 to 5 day intervals. […]
To quantitate the effects of polydiscamide A or its analogs on cell proliferation, 75 μl warm growth medium containing 5 mg/ml MTT was added to each well. […] To spectrophotometrically quantitate formation of reduced formazan, plates were centrifuged (900 g, 5 minutes), culture fluids were removed by aspiration, and 200 μl of acidified isopropanol (2 ml concentrated HCl/L isopropanol) added per well. The absorbance of the resulting solutions was measured at 570 nm with a plate reader (MR700 Microplate Reader, Dynatech Laboratories, Chantilly, Va.).

CCC(C)(C)[C@H](NC(=O)[C@@H](NC(=O)[C@@H]1CCCN1C(=O)[C@H](Cc1ccc(Br)cc1)NC(=O)[C@H](C)NC=O)C(C)(C)C)C(=O)N[C@@H](Cc1c[nH]c2ccccc12)C(=O)N[C@@H](CCCNC(=N)N)C(=O)N[C@@H](CS(=O)(=O)O)C(=O)N[C@@H]1C(=O)N(C)[C@@H](CCC(N)=O)C(=O)N[C@@H](C(C)C)C(=O)N2CCC[C@H]2C(=O)N[C@@H](CC(N)=O)C(=O)O[C@@H]1C [polydiscamide A] (For-A[Phe(4-Br)]P[Tle][Ile(3-Me)]WR[Cya]T[NMeQ]VPN; ester 9-C)
MIC against B. subtilis (Bacillus subtilis): 3.1 µg/mL (≈ 1.81 µM)
IC50 against mouse leukemia cells (P388) [1]: 0.96 µg/mL (≈ 0.561 µM)
IC50 against cultured human lung carcinoma cells (A549) [2]: 0.66 µg/mL (≈ 0.386 µM)
